Measured values reported in PubChem BioAssay AID330 (DTP/NCI, 2004).
Toxic doses and inconclusive results are not listed. How the source made its calls: active means survival T/C of 150% or more; inactive means T/C below 125% in these data.

Tested on: P388 leukemia ip, CD2F1 mice, survival T/C
Test: NCI In Vivo Anticancer Drug Screen. Data for tumor model P388 Leukemia (intraperitoneal) in CD2F1 (CDF1) mice
Conditions: endpoint: median survival time, higher = longer survival
In short: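 Mice carrying the transplanted tumor received test compound or vehicle. Survival was recorded in each group, and the value is the treated-group measurement divided by that of the vehicle-treated control group.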

[1] = dose: 50.0 mg/kg/injection, schedule: Q01DX009 (ip), vehicle: saline
[2] = dose: 100.0 mg/kg/injection, schedule: Q01DX009 (ip), vehicle: saline with Tween-80
[3] = dose: 100.0 mg/kg/injection, schedule: Q01DX009 (ip), vehicle: saline
[4] = dose: 200.0 mg/kg/injection, schedule: Q01DX009 (ip), vehicle: saline with Tween-80
[5] = dose: 200.0 mg/kg/injection, schedule: Q01DX009 (ip), vehicle: saline
[6] = dose: 60.0 mg/kg/injection, schedule: Q01DX005 (ip), vehicle: saline with Tween-80
[7] = dose: 60.0 mg/kg/injection, schedule: Q01DX005 (ip), vehicle: Klucel (hydroxypropylcellulose) (HPC)
[8] = dose: 120.0 mg/kg/injection, schedule: Q01DX005 (ip), vehicle: Klucel (hydroxypropylcellulose) (HPC)
[9] = dose: 240.0 mg/kg/injection, schedule: Q01DX005 (ip), vehicle: Klucel (hydroxypropylcellulose) (HPC)

Measured: T/C

CC1(C)Oc2c(C=O)c(O)cc3c2C2CC1CCC2(C)O3 (configuration not stated)
inactive: dose: 9.0 mg/kg/injection, schedule: Q01DX009 (ip), vehicle: saline with Tween-80 102 % of control | dose: 18.0 mg/kg/injection, schedule: Q01DX009 (ip), vehicle: saline with Tween-80 96 % of control | dose: 36.0 mg/kg/injection, schedule: Q01DX009 (ip), vehicle: saline with Tween-80 102 % of control

N/N=C(\N)c1nn(C2OC(CO)C(O)C2O)c2ncnc(N)c12 (configuration not stated)
inactive: dose: 40.0 mg/kg/injection, schedule: Q01DX005 (ip), vehicle: saline with Tween-80 104 % of control | dose: 80.0 mg/kg/injection, schedule: Q01DX005 (ip), vehicle: saline with Tween-80 104 % of control | dose: 160.0 mg/kg/injection, schedule: Q01DX005 (ip), vehicle: saline with Tween-80 101 % of control | dose: 320.0 mg/kg/injection, schedule: Q01DX005 (ip), vehicle: saline with Tween-80 104 % of control

O=C(NC1CCCCC1)N1CCCC1
inactive: [1] 99 % of control | [2] 91 % of control | [3] 95 % of control | [4] 86 % of control | [5] 102 % of control

O=C1N=C2SCCCN2C1(c1ccccc1)c1ccccc1
inactive: [6] 97 % of control | dose: 120.0 mg/kg/injection, schedule: Q01DX005 (ip), vehicle: saline with Tween-80 92 % of control | dose: 240.0 mg/kg/injection, schedule: Q01DX005 (ip), vehicle: saline with Tween-80 100 % of control

Cc1ccn2c(C(C)O)nnc2c1 (configuration not stated)
inactive: dose: 50.0 mg/kg/injection, schedule: Q01DX009 (ip), vehicle: saline with Tween-80 93 % of control | [2] 90 % of control | [4] 100 % of control

CCOC(=O)/C=C/c1ccc2c(c1)OCO2
inactive: dose: 100.0 mg/kg/injection, schedule: Q04DX003 (ip), vehicle: saline with Tween-80 100 % of control | dose: 200.0 mg/kg/injection, schedule: Q04DX003 (ip), vehicle: saline with Tween-80 90 % of control | dose: 400.0 mg/kg/injection, schedule: Q04DX003 (ip), vehicle: saline with Tween-80 100 % of control

CCOC(=O)c1ccc(NC(=O)Nc2ccc(N(C)C(C)=O)cc2)cc1
inactive: [7] 90 % of control | [8] 90 % of control | [9] 88 % of control

C[Si](CCCNCCN)(O[Si](C)(CCCNCCN)c1ccccc1)c1ccccc1 (configuration not stated)
inactive: dose: 15.0 mg/kg/injection, schedule: Q01DX005 (ip), vehicle: saline with Tween-80 109 % of control | dose: 30.0 mg/kg/injection, schedule: Q01DX005 (ip), vehicle: saline with Tween-80 105 % of control | [6] 100 % of control

O=C1CN=CN1
inactive: dose: 60.0 mg/kg/injection, schedule: Q01DX005 (ip), vehicle: saline 96 % of control | dose: 120.0 mg/kg/injection, schedule: Q01DX005 (ip), vehicle: saline 96 % of control | dose: 240.0 mg/kg/injection, schedule: Q01DX005 (ip), vehicle: saline 102 % of control

C[C@@H]1C[C@@H]2c3cccc4c3c(cn4CO)C[C@H]2N(C)C1
inactive: dose: 50.0 mg/kg/injection, schedule: Q01DX005 (ip), vehicle: saline with Tween-80 100 % of control | dose: 100.0 mg/kg/injection, schedule: Q01DX005 (ip), vehicle: saline with Tween-80 100 % of control | dose: 200.0 mg/kg/injection, schedule: Q01DX005 (ip), vehicle: saline with Tween-80 107 % of control

CO[C@H]1C[C@@H]2CC[C@@H](C)[C@@](O)(O2)C(=O)C(=O)N2CCCC[C@H]2C(=O)O[C@H]([C@H](C)C[C@@H]2CC[C@@H](O)[C@H](OC)C2)CC(=O)[C@H](C)C=C(C)[C@@H](O)[C@@H](OC)C(=O)[C@H](C)C[C@H](C)/C=C/C=C/C=C1C
inactive: dose: 6.25 mg/kg/injection, schedule: Q01DX001 (ip), vehicle: clinical formulation 103 % of control | dose: 6.25 mg/kg/injection, schedule: Q01DX001 (iv), vehicle: clinical formulation 102 % of control | dose: 6.25 mg/kg/injection, schedule: Q01DX005 (iv), vehicle: clinical formulation 115 % of control | dose: 12.5 mg/kg/injection, schedule: Q01DX001 (ip), vehicle: clinical formulation 107 % of control | dose: 12.5 mg/kg/injection, schedule: Q01DX001 (iv), vehicle: clinical formulation 100 % of control | dose: 12.5 mg/kg/injection, schedule: Q01DX005 (iv), vehicle: clinical formulation 110 % of control | dose: 25.0 mg/kg/injection, schedule: Q01DX001 (ip), vehicle: clinical formulation 111 % of control | dose: 25.0 mg/kg/injection, schedule: Q01DX001 (iv), vehicle: clinical formulation 100 % of control | dose: 25.0 mg/kg/injection, schedule: Q01DX005 (iv), vehicle: clinical formulation 113 % of control | dose: 50.0 mg/kg/injection, schedule: Q01DX001 (ip), vehicle: clinical formulation 118 % of control | dose: 50.0 mg/kg/injection, schedule: Q01DX001 (iv), vehicle: clinical formulation 106 % of control | dose: 50.0 mg/kg/injection, schedule: Q01DX005 (iv), vehicle: clinical formulation 113 % of control | dose: 50.0 mg/kg/injection, schedule: Q01DX005 (oral), vehicle: saline with Tween-80 110 % of control | dose: 50.0 mg/kg/injection, schedule: Q01DX009 (oral), vehicle: saline with Tween-80 116 % of control | dose: 100.0 mg/kg/injection, schedule: Q01DX001 (ip), vehicle: clinical formulation 117 % of control | dose: 100.0 mg/kg/injection, schedule: Q01DX001 (ip), vehicle: saline with Tween-80 124 % of control | dose: 100.0 mg/kg/injection, schedule: Q01DX001 (iv), vehicle: clinical formulation 104 % of control | dose: 100.0 mg/kg/injection, schedule: Q01DX005 (ip), vehicle: clinical formulation 110 % of control | dose: 100.0 mg/kg/injection, schedule: Q01DX005 (oral), vehicle: saline with Tween-80 112 % of control | dose: 100.0 mg/kg/injection, schedule: Q01DX009 (oral), vehicle: saline with Tween-80 119 % of control | dose: 200.0 mg/kg/injection, schedule: Q01DX001 (ip), vehicle: clinical formulation 118 % of control | dose: 200.0 mg/kg/injection, schedule: Q01DX005 (oral), vehicle: saline with Tween-80 108 % of control | [4] 122 % of control | dose: 200.0 mg/kg/injection, schedule: Q01DX009 (oral), vehicle: saline with Tween-80 112 % of control | dose: 400.0 mg/kg/injection, schedule: Q01DX005 (oral), vehicle: saline with Tween-80 118 % of control | dose: 400.0 mg/kg/injection, schedule: Q01DX009 (oral), vehicle: saline with Tween-80 116 % of control | dose: 800.0 mg/kg/injection, schedule: Q01DX005 (oral), vehicle: saline with Tween-80 116 % of control | dose: 800.0 mg/kg/injection, schedule: Q01DX009 (oral), vehicle: saline with Tween-80 116 % of control

Cc1ccc(CN(S(=O)(=O)c2ccc(C)cc2)S(=O)(=O)c2ccc(C)cc2)cc1
inactive: [2] 88 % of control | [4] 113 % of control

Cc1ccc(NC(=O)Oc2cc(C)c(Cl)cc2Br)cc1Cl
inactive: [1] 100 % of control | [3] 107 % of control | [5] 116 % of control

[N-]=[N+]=Nc1cccc(Nc2c3ccccc3nc3ccccc23)c1
inactive: dose: 50.0 mg/kg/injection, schedule: Q01DX009 (ip), vehicle: Klucel (hydroxypropylcellulose) (HPC) 98 % of control | dose: 100.0 mg/kg/injection, schedule: Q01DX009 (ip), vehicle: Klucel (hydroxypropylcellulose) (HPC) 100 % of control | dose: 200.0 mg/kg/injection, schedule: Q01DX009 (ip), vehicle: Klucel (hydroxypropylcellulose) (HPC) 107 % of control

COC(=O)C1(CC(=O)c2c(C)[nH]c3ccccc23)NC(=S)NC(=O)C1C#N (configuration not stated)
inactive: [7] 100 % of control | [8] 100 % of control | [9] 100 % of control
